Where no end group is shown, it is not given here. The star is where a group is joined. FITC = O=C1OC2(c3ccc(O)cc3Oc3cc(O)ccc32)c2ccc(NC(=S)*)cc21
Columns and labels:
[1] = test system: non-denaturing cell lysate of PN-transfected BCA cells (MDA-MB-231 and MCF-7); assay: Dot blot, FITC-peptide binding to non-denaturing cell lysate of PN-transfected BCA cells; conditions: 12.5 μg cell lysate, 4 °C overnight, fluorescence, vs mock
Excerpt: (§1) After selecting the best binding sequence of 12-amino acids peptides, 2 types of peptide would be synthesized, plain peptide and peptide conjugated with fluorescein isothiocyanate (FITC). For the synthesis of the latter, a spacer region ([…]) would be added at the C-terminal end of the peptide and FITC was conjugated with the side chain of lysine. Finally, C-terminal amidation would be performed. The synthesis of plain and FITC-labelled anti PN peptides was ordered from Syn Peptide company (Shanghai, China). FITC-labelled anti-PN peptide tested binding affinity to non-denaturing cell lysate of transfected BCA cells and their mock transfected cells and rPN by dot blot analysis. Briefly, 12.5 μg of cell lysate or 500 ng of rPN in 1 μl was applied onto nitrocellulose membrane. The membrane was blocked with 5% BSA followed by peptide incubation at 4 °C overnight and the fluorescent signal was detected the next day using the G:BOX gel documentation system. The checking of anti-PN peptide binding to intact PN-transfected BCA cells was also performed with similar process as immunocytochemistry plus a step of cell membrane permeabilizing after fixation by incubated with 1% Triton X for 1 min at RT. […] The observation was viewed under confocal microscope using laser diode 488 nm.

[2] = biological target: T1, BSA (Bos taurus, UniProt P02769); assay: Dot blot, FITC-peptide binding to BSA; conditions: BSA negative control, fluorescence
Excerpt: as §1

[3] = test system: rPN; assay: Dot blot, FITC-peptide binding to rPN; conditions: 500 ng rPN, 4 °C overnight, fluorescence
Excerpt: as §1

[4] = test system: PN-transfected BCA cells; assay: Immunocytochemistry, FITC-peptide binding to permeabilized PN-transfected BCA cells; assay type: cell-based; conditions: 2 μM FITC-peptide, 1 h at RT, 1% Triton X permeabilized, confocal microscope; PN-transfected vs mock
Excerpt: as §1

[5] = test system: MDA-MB-231 cells; assay: Drug sensitivity (MTS), MDA-MB-231; assay type: cell-based; conditions: Homo sapiens, MDA-MB-231, 48 h, MTS
Method: (§2) Determination the IC50 of BCA cells in response to chemotherapeutic drugs was analyzed by MTS assay. The experiment started from 5 × 10^3 of BCA cells in 100 μl medium that were seeded in 96-well plates for 24 h, then media was changed with different concentrations of new chemotherapeutic drugs [doxorubicin (S1208), paclitaxel (S1150), cisplatin (S1166), 5-fluorouracil (5-FU) (S1209) and gemcitabine (S1714) that were purchased from Selleck Chemicals, Houston, TX, USA] with or without rPN and anti-PN peptide for a further 48 h. After that, cell viability was determined by the MTS assay. Combination index (CI) was calculated by IC50 of combination of drug and PN or anti-PN peptide divided by IC50 of chemotherapeutic drug alone.
(§3) ANOVA test or Student’s t-test were applied for statistical analysis of the experiments. GraphPad Prism® version 7.04 software (GraphPad Software, San Diego, CA, USA) was used in calculation of IC50 values of chemotherapeutic drugs and PASW Statistics software version 18 (SPSS, IBM, Armonk, NY, USA) was used for other analysis. Dose-responses were compared by Holm-Sidak’s multiple comparison test. Mann-Whitney ranked-sum test was used for comparisons between normal and patient serum PN. Chi-square or Fisher’s exact test were used to determine the correlation between PN expression and clinical data in BCA patients. Kaplan-Meier Log-rank test using Kaplan-Meier Plotter online tool (https://kmplot.com/) was performed to determine the correlation between PN expression and survival time of BCA patients by online database. P-values of < 0.05 were used as statistical significance.

[6] = test system: MCF-7 cells; assay: Drug sensitivity (MTS), MCF-7; assay type: cell-based; conditions: Homo sapiens, MCF7, 48 h, MTS
Method: as §2, §3

[7] = biological target: T1, BSA; assay: Isothermal titration calorimetry, binding to BSA (negative control); conditions: ITC
Excerpt: The physical properties of this peptide would be determined by an online tool (https://www.thermofisher.com) (Thermo Fisher Scientific). Structure of this peptide and the binding properties to PN would be predicted by PEP-FOLD3 [34] and pepATTRACT [35] tools from RPBS Web Portal (https://bioserv.rpbs.univ-paris-diderot.fr) using PN 3D-structure from RCSB PDB database (https://www.rcsb.org/structure/5YJG). […] The procedure followed the instructions for the machine. The results would be determined by the measurement of the exothermic energy after intermittent injection into the cell compartment and reported as the binding affinity constant (KD).

T1 sequence (P02769 25-607): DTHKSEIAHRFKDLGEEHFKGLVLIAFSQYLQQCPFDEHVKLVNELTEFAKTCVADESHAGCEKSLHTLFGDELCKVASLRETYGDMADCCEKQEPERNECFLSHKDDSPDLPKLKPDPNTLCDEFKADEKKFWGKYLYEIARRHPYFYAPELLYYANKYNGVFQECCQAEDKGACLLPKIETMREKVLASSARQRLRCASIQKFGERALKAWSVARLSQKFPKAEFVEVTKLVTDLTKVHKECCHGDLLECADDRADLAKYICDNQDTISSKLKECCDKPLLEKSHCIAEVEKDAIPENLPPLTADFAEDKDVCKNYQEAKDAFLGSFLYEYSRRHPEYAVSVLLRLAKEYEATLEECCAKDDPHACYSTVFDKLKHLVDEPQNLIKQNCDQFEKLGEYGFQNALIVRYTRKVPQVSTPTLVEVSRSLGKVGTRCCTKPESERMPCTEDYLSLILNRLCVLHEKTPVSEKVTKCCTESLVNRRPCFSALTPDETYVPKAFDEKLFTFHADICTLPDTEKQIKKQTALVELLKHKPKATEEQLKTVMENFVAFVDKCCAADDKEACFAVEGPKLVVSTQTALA

For “FITC-labelled anti-PN peptide (TFATHGKHWAAPGGGSCK(FITC)-NH2; N-terminus assumed; SMILES C[C@H](NC(=O)[C@H](Cc1c[nH]c2ccccc12)NC(=O)[C@H](Cc1c[nH]cn1)NC(=O)[C@H](CCCCN)NC(=O)CNC(=O)[C@H](Cc1c[nH]cn1)NC(=O)[C@@H](NC(=O)[C@H](C)NC(=O)[C@H](Cc1ccccc1)NC(=O)[C@@H](N)[C@@H](C)O)[C@@H](C)O)C(=O)N[C@@H](C)C(=O)N1CCC[C@H]1C(=O)NCC(=O)NCC(=O)NCC(=O)N[C@@H](CO)C(=O)N[C@@H](CS)C(=O)N[C@@H](CCCCNC(=S)Nc1ccc2c(c1)C(=O)OC21c2ccc(O)cc2Oc2cc(O)ccc21)C(N)=O)”, which “Peptide binding to PN-transfected cell lysate” value [1] is on record?
Its value is “higher in both PN-transfected BCA cells compared with their mock control cells”.

And the “Peptide binding to BSA” value [2]?
The value was “no signal in BSA”.

What about the “Peptide binding to rPN” value [3] of the same molecule?
The value was “markedly increased in rPN”.

What about the “Peptide binding in permeabilized cells” value [4] of the same molecule?
The value was “confirmed by immunocytochemistry staining in permeabilized cells”.

For `COc1cccc2c1C(=O)c1c(O)c3c(c(O)c1C2=O)C[C@@](O)(C(=O)CO)C[C@@H]3O[C@H]1C[C@H](N)[C@H](O)[C@H](C)O1` [doxorubicin], which IC50 ([5]; doxorubicin with anti-PN peptide, PN-transfected MDA-MB-231, 48 h, P-value = 0.002) is on record?
The IC50 was 797 nM.

And the IC50 ([5]; doxorubicin with anti-PN peptide, mock transfected MDA-MB-231, 48 h, P-value = 0.932)?
Its IC50 is 706 nM.

What about the IC50 ([5]; doxorubicin, PN-transfected MDA-MB-231, 48 h, P-value < 0.001 vs mock) of the same molecule?
The IC50 was 1090 nM.

And the IC50 ([5]; doxorubicin, anti-PN peptide treated MDA-MB-231 without rPN, 48 h, P-value = 0.870)?
Its IC50 is 896 nM.

What about the IC50 ([5]; doxorubicin, mock transfected MDA-MB-231, 48 h) of the same molecule?
The IC50 was 710 nM.

What about the IC50 ([5]; doxorubicin, rPN + anti-PN peptide treated MDA-MB-231, 48 h, P-value = 0.038) of the same molecule?
The IC50 was 1300 nM.

What about the IC50 ([5]; doxorubicin, rPN-treated MDA-MB-231, 48 h, P-value = 0.024) of the same molecule?
The IC50 was 1990 nM.

What about the IC50 ([5]; doxorubicin, untreated control MDA-MB-231 (rPN treatment experiment), 48 h) of the same molecule?
The IC50 was 845 nM.

What about the IC50 ([6]; doxorubicin with anti-PN peptide, PN-transfected MCF-7, 48 h, P-value = 0.007) of the same molecule?
The IC50 was 970 nM.

And the IC50 ([6]; doxorubicin, PN-transfected MCF-7, 48 h, P-value = 0.013 vs mock)?
Its IC50 is 1440 nM.

What about the IC50 ([6]; doxorubicin, anti-PN peptide treated MCF-7 without rPN, 48 h, P-value = 0.558) of the same molecule?
Its IC50 is 1040 nM.

What about the IC50 ([6]; doxorubicin, mock transfected MCF-7, 48 h) of the same molecule?
The IC50 was 1070 nM.

And the IC50 ([6]; doxorubicin, rPN + anti-PN peptide treated MCF-7, 48 h, P-value = 0.038)?
The IC50 was 1270 nM.

What about the IC50 ([6]; doxorubicin, rPN-treated MCF-7, 48 h, P-value = 0.007) of the same molecule?
Its IC50 is 1460 nM.

And the IC50 ([6]; doxorubicin, untreated control MCF-7 (rPN treatment experiment), 48 h)?
Its IC50 is 1050 nM.

With TFATHGKHWAAP [anti-PN peptide] as the molecule, how does the “Binding affinity to BSA” value [7] read?
The value was “could not be determined in BSA”.

From PMC7807878, “Development of an engineered peptide antagonist against periostin to overcome doxorubicin resistance in breast cancer” (BMC Cancer, 2021)
